According to ChEMBL document CHEMBL1128055, “Selective cytotoxic cyclolignans” (Bioorg Med Chem Lett, 1995):

What was measured:
[1] = Selectivity index was evaluated by antineoplastic activity against HT-29 cells and compared with cytotoxicity against normal cells; format: functional
SK-MEL-28 = experiment: Antineoplastic activity against MEL-28 human melanoma carcinoma cell cultures; format: functional, cell-based
HT-29 = experiment: Antineoplastic activity against HT-29 (human colon carcinoma) cell line.; format: functional, cell-based
P388 = experiment: Antineoplastic activity against P-388 (murine leukemia) cell line.; format: functional, cell-based; settings: Mus musculus
A549 = experiment: Antineoplastic activity against A-549 (human lung carcinoma) cell line.; format: functional, cell-based
CV-1 = experiment: Antineoplastic activity against CV-1 (monkey kidney fibroblast) cell line.; format: functional, cell-based, Cercopithecidae; settings: Chlorocebus aethiops

Structure (SMILES)	IC50 (SK-MEL-28)	IC50 (HT-29)	IC50 (P388)	IC50 (A549)	Selectivity index [1]	IC50 (CV-1)
COc1cc([C@@H]2c3cc4c(cc3C[C@H]3COC(=O)[C@@H]32)OCO4)cc(OC)c1OC [DESOXYPODOPHYLLOTOXIN]		6 nM	10 nM	< 6 nM		6 nM
COC(=O)[C@@H]1[C@H](CO)Cc2cc3c(cc2[C@H]1c1cc(OC)c(OC)c(OC)c1)OCO3	58 nM	120 nM	58 nM	58 nM		58 nM
COC(=O)[C@@H]1C(/C=N/Nc2ccccc2)=Cc2cc3c(cc2[C@H]1c1cc(OC)c(OC)c(OC)c1)OCO3	4840 nM	39 nM	1940 nM	970 nM	50	1940 nM
COC(=O)[C@@H]1C(C=O)=Cc2cc3c(cc2[C@H]1c1cc(OC)c(OC)c(OC)c1)OCO3 [PODOPHYLLIC ALDEHYDE]	230 nM	12 nM	230 nM	120 nM	20	230 nM
CO/N=C/[C@@H]1Cc2cc3c(cc2[C@@H](c2cc(OC)c(OC)c(OC)c2)[C@@H]1C(=O)OC)OCO3	> 21900 nM	> 21900 nM	10900 nM	21900 nM		> 21900 nM
COc1cc([C@@H]2c3cc4c(cc3[C@H](O)[C@H]3COC(=O)[C@H]23)OCO4)cc(OC)c1OC [PODOFILOX]		29 nM	12 nM	12 nM		29 nM
COc1cc([C@@H]2c3cc4c(cc3C(=O)[C@H]3COC(=O)[C@@H]23)OCO4)cc(OC)c1OC [PICROPODOPHYLLONE]		12000 nM	12000 nM	12000 nM		48000 nM

Further lines, with some results ahead:

IC50 (SK-MEL-28)	IC50 (HT-29)	IC50 (P388)	IC50 (A549)	Structure (SMILES)	Selectivity index [1]	IC50 (CV-1)
480 nM	48 nM	480 nM	190 nM	COC(=O)[C@@H]1C(/C=N/NCC(F)(F)F)=Cc2cc3c(cc2[C@H]1c1cc(OC)c(OC)c(OC)c1)OCO3	10	480 nM
250 nM	250 nM	250 nM	250 nM	COc1cc([C@@H]2c3cc4c(cc3C=C(C=O)[C@H]2CO)OCO4)cc(OC)c1OC		630 nM
1140 nM	570 nM	570 nM	570 nM	COC(=O)[C@@H]1C(/C=N/N)=Cc2cc3c(cc2[C@H]1c1cc(OC)c(OC)c(OC)c1)OCO3		2270 nM
510 nM	2050 nM	1020 nM	1020 nM	COc1cc([C@@H]2c3cc4c(cc3C=C(/C=N/Nc3ccccc3)[C@H]2CO)OCO4)cc(OC)c1OC		1020 nM
2270 nM	2270 nM	2270 nM	2270 nM	COC(=O)[C@@H]1C(/C=N/O)=Cc2cc3c(cc2[C@H]1c1cc(OC)c(OC)c(OC)c1)OCO3		2270 nM
5630 nM	5630 nM	5630 nM	5630 nM	COC(=O)[C@H]1[C@H](c2cc(OC)c(OC)c(OC)c2)c2cc3c(cc2C(=O)[C@H]1CO)OCO3		5630 nM
	450 nM	220 nM	220 nM	COC(=O)[C@H]1[C@H](c2cc(OC)c(OC)c(OC)c2)c2cc3c(cc2[C@H](O)[C@H]1CO)OCO3		450 nM
	1100 nM	1100 nM	1100 nM	COC(=O)[C@H]1[C@H](c2cc(OC)c(OC)c(OC)c2)c2cc3c(cc2[C@H](OC(C)=O)[C@H]1COC(C)=O)OCO3		1100 nM
210 nM	210 nM	210 nM	210 nM	COC(=O)[C@@H]1[C@H](COC(C)=O)Cc2cc3c(cc2[C@H]1c1cc(OC)c(OC)c(OC)c1)OCO3		210 nM
220 nM	220 nM	220 nM	220 nM	CO/N=C/C1=Cc2cc3c(cc2[C@@H](c2cc(OC)c(OC)c(OC)c2)[C@@H]1C(=O)OC)OCO3		220 nM
2340 nM	2340 nM	2340 nM	2340 nM	COC(=O)[C@H]1[C@H](c2cc(OC)c(OC)c(OC)c2)c2cc3c(cc2C[C@H]1C=O)OCO3		2340 nM
